Results: ChEMBL document CHEMBL1177822, “Synthesis and anti-HIV activity of 2'-deoxy-2'-fluoro-4'-C-ethynyl nucleoside analogs” (Bioorg Med Chem Lett, 2010)

Key:
[1] = Cytotoxicity against human MT2 cells by MTT assay; type: cell-based
[2] = test system: Human immunodeficiency virus 1; experiment: Antiviral activity against HIV1 bearing VSV glycoprotein infected in human MT2 cells assessed as inhibition of viral replication after 48 hrs by luciferase reporter gene assay; type: functional, organism-based; details: Human immunodeficiency virus 1, MT2, 48 h
[3] = test system: Human immunodeficiency virus 1; experiment: Ratio of compound IC50 to 1-(20-deoxy-40-C-ethynyl-beta-D-arabinofuranosyl)-thymine IC50 for HIV1 bearing VSV glycoprotein infected in human MT2 cells assessed as inhibition of viral replication after 48 hrs by luciferase reporter gene assay; type: functional
[4] = test system: Human immunodeficiency virus 1; experiment: Antiviral activity against wild type HIV1 NL4-3 infected in human TZM-bl cells assessed as inhibition of viral replication after 4 days by p24 based ELISA; type: functional, organism-based; details: Human immunodeficiency virus 1, NL4-3, TZM-bl, 96 h
[5] = test system: Human immunodeficiency virus 1; experiment: Antiviral activity against reverse transcriptase multidrug-resistant HIV1 infected in human TZM-bl cells assessed as inhibition of viral replication after 4 days by p24 based ELISA; type: functional, organism-based; details: Human immunodeficiency virus 1, TZM-bl, 96 h
[6] = test system: Human immunodeficiency virus 1; experiment: Ratio of compound IC50 to zidovudine IC50 for HIV1 bearing VSV glycoprotein infected in human MT2 cells assessed as inhibition of viral replication after 48 hrs by luciferase reporter gene assay; type: functional
[7] = test system: Human immunodeficiency virus 1; experiment: Antiviral activity against HIV1 NL4-3 with reverse transcriptase K101E mutant infected in human TZM-bl cells assessed as inhibition of viral replication after 4 days by p24 based ELISA; type: functional, organism-based; details: Human immunodeficiency virus 1, NL4-3, TZM-bl, 96 h

| SMILES | CC50 [1] | IC50 [2] | Ratio IC50 [3] | IC50 [4] | IC50 [5] | Ratio IC50 [6] | IC50 [7] |
| --- | --- | --- | --- | --- | --- | --- | --- |
| C#C[C@]1(CO)O[C@@H](n2ccc(=O)[nH]c2=O)[C@@H](F)[C@@H]1O | > 10000 nM | 6530 nM |  |  |  |  |  |
| Cc1cn([C@H]2C[C@H](N=[N+]=[N-])[C@@H](CO)O2)c(=O)[nH]c1=O [ZIDOVUDINE] | > 200000 nM | 47 nM |  |  |  |  |  |
| C#C[C@]1(CO)O[C@@H](n2cc(C)c(=O)[nH]c2=O)[C@@H](F)[C@@H]1O | > 10000 nM | 86 nM | 10 |  |  |  |  |
| C#C[C@]1(CO)O[C@@H](n2ccc(N)nc2=O)[C@@H](F)[C@@H]1O | > 10000 nM | 1.34 nM |  | 0.46 nM | 1.45 nM | 35 | 1.52 nM |
